In patent publication US7312248B2, “Control of parasites in animals by the use of novel trifluoromethanesulfonanilide oxime ether derivatives” (Schering-Plough Animal Health Corporation, priority 2004, dated 2007):
Read-outs that look alike come from different tables or passages of the source.

Key:
Format in all cases: in vivo
Haemonchus contortus = Haemonchus contortus larvacidal (larval development) assay; conditions: 144 h, read-out: Haemonchus contortus LD99
How it was run: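 Nematode eggs placed on agar containing compound (12 two-fold dilutions, final 0.024–50 μg/ml) and left 6 days to develop to L3. LD99 is the lowest concentration inhibiting development of 99% of larvae, derived from well titre (2^n−1) and top concentration.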

[1] = tested on: cat flea (Ctenocephalides felis); experiment: whole plant or invertebrate; conditions: Ctenocephalides felis
How it was run: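 Single-dose screen at 1.26 μg/cm^2: acetone solution dried for 24 h on a Coatasil-treated 159 mm^2 flask base, then 15 adult cat fleas aged 3-7 days per flask, four or more replicates, acetone control. Percent dead, meaning not moving or unable to right themselves, recorded after 8, 24 and/or 48 h at 25 °C and 75% RH.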

[2] = tested on: cat flea (Ctenocephalides felis); experiment: Ctenocephalides felis adulticide assay: dose response (LC50)
Text: c) Ctenocephalides felis Adulticide Assay: C. felis Dose Response
The purpose of this example was to determine the LC50 when cat fleas were contacted with a glass surface treated with sample compounds or formulations prepared as described above. Mortality of fleas was defined as follows: fleas were considered dead if they didn't move or were on their sides and unable to walk or right themselves. LC50: Lethal Concentration 50—concentration of glass surface treatment at which 50% of the cat fleas were killed. The test species was the cat flea (Ctenocephalides felis). The strain used was obtained from external suppliers as pupae and held in the laboratory under testing conditions until the adults had emerged. Fifteen (15) fleas were used in a minimum of four replicates for each dose level (total of 60 fleas per dose level). The insects were selected to be in the adult life stage, aged between 3 and 7 days post emergence.
The compounds to be tested were dissolved in acetone just prior to testing. Samples of compounds were stored in a refrigerator (5±1° C.) unless otherwise specified. During the mortality testing, the temperature was maintained at 25+1° C. Humidity was maintained at 75±5%. The base (area=159 mm^2) of a 100 mL glass Erlenmeyer (conical) flask provided the treatment surface. Flasks were pretreated with Coatasil™ glass treatment to maximise bio-availability of test compounds by preventing them from binding to the glass surface.
Six dose levels (concentrations) of test sample, in the form of a serial dilution, were derived from a pilot study and covered a range that produced very low to very high mortality. The base of the 100 mL Erlenmeyer flask was treated with 0.5 mL of test sample in acetone and gently swirled. This volume was sufficient to cover the base of the flask. Flasks were left to dry for 24 hours before flea exposure. Adult cat fleas were lightly anaesthetised by cooling and then placed into a sorting chamber, which allowed fleas to revive and jump into the Erlenmeyer flasks. Fifteen (15)adult cat fleas were collected in each flask. The top of the flasks were then covered in Parafilm™ and small holes made to allow gas exchange. A 0.5 mL volume of acetone was applied to the base of an Erlenmeyer flask and the testing proceeded in the same manner described above. Cat fleas in the treatment containers were held under testing conditions for 24 hours. Mortality resulting from the treatments was recorded at 8 and 24 hours.

[3] = tested on: Brown Dog Tick (Rhipicephalus sanguineus); experiment: Rapid screening protocol for topical application on brown dog ticks; conditions: 48 h; Laboratory 2 F data
Method: d) Rapid Screening Protocol for Topical Application on Brown Dog Ticks (Rhipicephalus sanguineus)
The aim of the test was to determine the presence of significant acaricidal activity in sample compounds or formulations when applied topically on brown dog ticks. A tick was defined as dead if it gave no apparent response when touched lightly and observed for 1 minute. […] Both permethrin and fipronil were employed as reference compounds. The insect species tested was the Brown Dog Tick (Rhipicephalus sanguineus). Mixed sex adult ticks were used for tests. The strain used was cultured by von Berky Veterinary Services, Woody Point, QLD, AU and supplied as unfed adult ticks (mixed sex). Ticks were maintained in controlled conditions (temp. 18°+2° C., humidity 75±5% RH).
Temperature was maintained at 25±1° C. and the humidity was ambient. […] Ticks were each treated on the abdomen with 1 μL of a single dose level of test sample in acetone; ten ticks were treated with solvent only (acetone) in each test. Tests were replicated 4 times (total of 40 ticks treated). […]

[4] = 24 h, read-out: C. felis Mortality (%) 24 h, 24 h, Laboratory 1 A data
[5] = 8 h, read-out: C. felis Mortality (%) 8 h, 8 h, Laboratory 2 B data
[6] = 24 h, read-out: C. felis Mortality (%) 24 h, 24 h, Laboratory 2 B data

**Q.** `CC/C(=N\Oc1cccc(Cl)c1)c1cc(Cl)ccc1NS(=O)(=O)C(F)(F)F` [Compound 131] was tested. Which IC99 (Haemonchus contortus) did it give?
**A.** 1.6 µg/mL

**Q.** What about the mortality at 1.26 µg/cm2, 1.26 µg/cm2 [1, 4] of the same compound?
**A.** 100%

**Q.** What about the “C. felis LC50” value ([2]; Laboratory 1 C data) of the same compound?
**A.** 0.7 μg/cm^2

**Q.** Which results are given for `C/C(=N\Oc1cccc(C(F)(F)F)c1)c1cc(Cl)ccc1NS(=O)(=O)C(F)(F)F` [Compound 134, N-{4-chloro-2-[1-(3-trifluoromethylphenoxyimino)ethyl]phenyl}trifluoromethanesulfonamide]?
**A.** IC99 (Haemonchus contortus): 0.4 µg/mL; mortality at 1.26 µg/cm2, 1.26 µg/cm2 [1, 4]: 96%; C. felis LC50 ([2]; Laboratory 1 C data): 0.4 μg/cm^2

**Q.** How did the IC99 (Haemonchus contortus) turn out when `CC/C(=N\Oc1ccc(Cl)c(Cl)c1)c1cc(Cl)ccc1NS(=O)(=O)C(F)(F)F` [Compound 139] was run?
**A.** 0.9 µg/mL

**Q.** What about the mortality at 1.26 µg/cm2, 1.26 µg/cm2 [1, 4] of the same compound?
**A.** 64%

**Q.** And the “C. felis LC50” value ([2]; Laboratory 2 D data)?
**A.** 0.3^D μg/cm^2

**Q.** Which results are given for `CC/C(=N\OCCOC)c1cc(Cl)ccc1NS(=O)(=O)C(F)(F)F` [Compound 183]?
**A.** R. sanguineus Mortality (%) 48 h [3]: 100%; mortality at 1.26 µg/cm2, 1.26 µg/cm2 [1, 5]: 100%; mortality at 1.26 µg/cm2, 1.26 µg/cm2 [1, 6]: 100%

**Q.** For `CC/C(=N\OCC(F)(F)F)c1cc(Cl)ccc1NS(=O)(=O)C(F)(F)F` [Compound 184], which “R. sanguineus Mortality (%) 48 h” value [3] is on record?
**A.** 92%

**Q.** What about the mortality at 1.26 µg/cm2, 1.26 µg/cm2 [1, 5] of the same compound?
**A.** 100%

**Q.** And the mortality at 1.26 µg/cm2, 1.26 µg/cm2 [1, 6]?
**A.** 100%

**Q.** With `C/C(=N\OCc1cccnc1)c1cc(Cl)ccc1NS(=O)(=O)C(F)(F)F` [Compound 188] as the compound, how does the “R. sanguineus Mortality (%) 48 h” value [3] read?
**A.** 40%

**Q.** And the mortality at 1.26 µg/cm2, 1.26 µg/cm2 [1, 5]?
**A.** 98%

**Q.** And the mortality at 1.26 µg/cm2, 1.26 µg/cm2 [1, 6]?
**A.** 98%

**Q.** How did the “R. sanguineus Mortality (%) 48 h” value [3] turn out when `C/C(=N\OCc1cccs1)c1cc(Cl)ccc1NS(=O)(=O)C(F)(F)F` [Compound 190] was run?
**A.** 75%

**Q.** And the mortality at 1.26 µg/cm2, 1.26 µg/cm2 [1, 5]?
**A.** 98%

**Q.** What about the mortality at 1.26 µg/cm2, 1.26 µg/cm2 [1, 6] of the same compound?
**A.** 100%

**Q.** Which “R. sanguineus Mortality (%) 48 h” value [3] does the source give for `CCC/C(=N\OC(C)C)c1cc(Cl)ccc1NS(=O)(=O)C(F)(F)F` [Compound 191] here?
**A.** 92%

**Q.** And the mortality at 1.26 µg/cm2, 1.26 µg/cm2 [1, 5]?
**A.** 52%

**Q.** What about the mortality at 1.26 µg/cm2, 1.26 µg/cm2 [1, 6] of the same compound?
**A.** 100%

**Q.** Which “R. sanguineus Mortality (%) 48 h” value [3] does the source give for `CCC/C(=N\OC1CCCC1)c1cc(Cl)ccc1NS(=O)(=O)C(F)(F)F` [Compound 195] here?
**A.** 97%

**Q.** What about the mortality at 1.26 µg/cm2, 1.26 µg/cm2 [1, 5] of the same compound?
**A.** 33%

**Q.** What about the mortality at 1.26 µg/cm2, 1.26 µg/cm2 [1, 6] of the same compound?
**A.** 100%

**Q.** `CC/C(=N\OCC1CCCC1)c1cc(Cl)ccc1NS(=O)(=O)C(F)(F)F` [Compound 197] was tested. Which “R. sanguineus Mortality (%) 48 h” value [3] did it give?
**A.** 100%

**Q.** And the mortality at 1.26 µg/cm2, 1.26 µg/cm2 [1, 5]?
**A.** 80%

**Q.** And the mortality at 1.26 µg/cm2, 1.26 µg/cm2 [1, 6]?
**A.** 97%

**Q.** Which results are given for `CC(C)(C)/C(=N\Oc1ccc(F)cc1)c1cc(Cl)ccc1NS(=O)(=O)C(F)(F)F` [Compound 198, N-{4-chloro-2-[1-(4-fluorophenoxyimino)2,2-dimethylpropyl]phenyl}trifluoromethanesulfonamide]?
**A.** R. sanguineus Mortality (%) 48 h [3]: 35%; mortality at 1.26 µg/cm2, 1.26 µg/cm2 [1, 5]: 16%; mortality at 1.26 µg/cm2, 1.26 µg/cm2 [1, 6]: 92%

**Q.** Which results are given for `C/C(=N\Oc1ccc(Cl)cc1)c1ccc(C(F)(F)F)cc1NS(=O)(=O)C(F)(F)F` [Compound 199, N-{2-[1-(4-chlorophenoxyimino)ethyl]-5-trifluoromethylphenyl}trifluoromethanesulfonamide]?
**A.** R. sanguineus Mortality (%) 48 h [3]: 5%; mortality at 1.26 µg/cm2, 1.26 µg/cm2 [1, 5]: 82%; mortality at 1.26 µg/cm2, 1.26 µg/cm2 [1, 6]: 100%

**Q.** Which results are given for `C/C(=N\Oc1ccc(F)cc1)c1ccc(C(F)(F)F)cc1NS(=O)(=O)C(F)(F)F` [Compound 200, N-{2-[1-(4-fluorophenoxyimino)ethyl]-5-trifluoromethylphenyl}trifluoromethanesulfonamide]?
**A.** R. sanguineus Mortality (%) 48 h [3]: 17%; mortality at 1.26 µg/cm2, 1.26 µg/cm2 [1, 5]: 93%; mortality at 1.26 µg/cm2, 1.26 µg/cm2 [1, 6]: 100%

**Q.** For `CC/C(=N\Oc1ccc(Cl)cc1)c1ccc(C(F)(F)F)cc1NS(=O)(=O)C(F)(F)F` [Compound 201], which “R. sanguineus Mortality (%) 48 h” value [3] is on record?
**A.** 22%

**Q.** And the mortality at 1.26 µg/cm2, 1.26 µg/cm2 [1, 5]?
**A.** 85%

**Q.** What about the mortality at 1.26 µg/cm2, 1.26 µg/cm2 [1, 6] of the same compound?
**A.** 100%

**Q.** How did the “R. sanguineus Mortality (%) 48 h” value [3] turn out when `C/C(=N\OCC1CCCO1)c1cc(Cl)ccc1NS(=O)(=O)C(F)(F)F` (stereo not drawn) [Compound 203] was run?
**A.** 95%

**Q.** What about the mortality at 1.26 µg/cm2, 1.26 µg/cm2 [1, 5] of the same compound?
**A.** 98%

**Q.** What about the mortality at 1.26 µg/cm2, 1.26 µg/cm2 [1, 6] of the same compound?
**A.** 98%
